The results in this text go back to patent US9579319B2 (Redx Pharma PLC, priority 2013, dated 2017).

Like-named read-outs stand apart in the source and are kept apart here.

The test has as its system Hedgehog signalling pathway. The test can be described thus: Gli-reporter NIH3T3 luciferase assay (Hedgehog pathway inhibition). It counts as cell-based. The conditions noted are these: NIH3T3, Gli-reporter NIH-3T3 cells, recombinant mouse sonic hedgehog, 24 hours, luminescence. The protocol: In vitro biological evaluation of compounds of the invention was carried out using the procedure detailed below. The procedure provides activity data for the compounds of the invention against the Hedgehog signalling pathway. The activity is represented as IC50 values in Table 12 below.
The Gli-reporter NIH3T3 cell line (BPS Biosciences) was grown according to the suppliers recommendations. Briefly, cells were maintained in growth medium (DMEM supplemented with 10% calf serum, 1% Penicillin/Streptomycin, and 500 µg/mL of Geneticin) and grown at 37° C., 5% CO2. In order to passage cells they were first rinsed with phosphate buffered saline before the addition of 0.05% Trypsin/EDTA. Fresh growth media was added and the cells were transferred to a centrifuge tube, spun and resuspended at an appropriate cell density.
Gli-reporter NIH-3T3 cells were seeded at 20,000 cells/well into 96 well, poly-D-lysine coated white clear bottomed full area TC plates in growth media (without geneticin). Three wells were left with just media as cell free controls. Cells were then incubated for 24 hours at 37° C. in a 5% CO2.
Serial dilutions of the test compounds were prepared in 100% DMSO. 10 μl of compound or DMSO from each well was pipetted into a sterile, 0.5 ml deep well conical bottomed 96 well plate (intermediate plate). 190 μl of warmed assay media (Opti-MEM supplemented with 0.5% calf serum, 1% non-essential amino acids, 1 mM sodium pyruvate, 10 mM HEPES, 1% penicillin/Streptomycin) was then added to each well and mixed five times at 180 μl by electronic pipette to ensure homogeneity of the compound solution. This 1:20 dilution gives a top concentration of 50 μM in 5% DMSO, 95% assay media. 10 μl was pipetted from each well of the intermediate plate into a second deep well sterile plate. 490 μl of warm assay media was then added to each well and mixed five times at 300 μl. This gives a final top concentration of 1 μM in 0.1% DMSO.
After the 24 hour incubation, media was carefully removed by pipette and replaced with 45 μl of compound dilutions in triplicate. This was incubated for one hour at 37° C. in a 5% CO2. After an hour, 5 μl 10 μg/mL recombinant mouse sonic hedgehog (R&D Systems) was added to each well and the plates were incubated for a further 24 hours at 37° C., 5% CO2.
After 24 hours, plates were removed from the incubator and left to acclimatise to room temperature for 20 minutes. 50 μl of OneGLO assay reagent (Promega) was then added to each well and the plates gently shaken for a further 30 minutes. Plates were then read for luminescence on the EnVision plate reader (PerkinElmer).

The mark [1] stands for this setting: read-out: Category (Hedgehog pathway inhibition activity, IC50).

In the case of `CN(Cc1ccnnc1)C1CCN(c2nnc(-c3ccnn3C)c3ccccc23)CC1` [Example 91, N-methyl-1-[4-(2-methylpyrazol-3-yl)phthalazin-1-yl]-N-(pyridazin-4-ylmethyl)piperidin-4-amine], for the setting “read-out: Gli luc IC50”, the IC50 was > 200 nM.
In the case of `CN(Cc1ccc(F)cc1C(F)(F)F)C1CCN(c2nnc(-c3cnccn3)c3ccccc23)CC1` [Example 153, N-[[4-fluoro-2-(trifluoromethyl)phenyl]methyl]-N-methyl-1-(4-pyrazin-2-ylphthalazin-1-yl)piperidin-4-amine], for the setting “read-out: Gli luc IC50”, the IC50 was > 200 nM.
As to `Cn1nccc1-c1nnc(N2CCC(NCc3cccc(OC(F)(F)F)c3)CC2)c2ccccc12` [Example 34, 1-[4-(2-methylpyrazol-3-yl)phthalazin-1-yl]-N-[[3-(trifluoromethoxy)phenyl]methyl]piperidin-4-amine], the IC50 under setting [1] fell in the range of 10 to 200 nM.
`Cn1nccc1-c1nnc(N2CCC(NC(=O)Nc3ccc(OC(F)(F)F)cc3)CC2)c2ccccc12` [Example 167, 1-[1-[4-(2-methylpyrazol-3-yl)phthalazin-1-yl]-4-piperidyl]-3-[4-(trifluoromethoxy)phenyl]urea]: the concentration for half-maximal inhibition (IC50) (read-out: Gli luc IC50) is < 10 nM.
For the molecule `CN(Cc1ccccc1F)C1CCN(c2nnc(-c3ccnn3C)c3ccccc23)CC1` [Example 64, (2-fluorophenyl)methyl-methyl-[1-[4-(2-methylpyrazol-3-yl)phthalazin-1-yl]-4-piperidyl]ammonium], the concentration for half-maximal inhibition (IC50) under setting [1] lay within 10 to 200 nM.
With `Cn1nccc1-c1nnc(N2CCC(NCc3ccc(F)cc3C(F)(F)F)CC2)c2cnccc12` [Example 49, N-[[4-fluoro-2-(trifluoromethyl)phenyl]methyl]-1-[1-(2-methylpyrazol-3-yl)pyrido[3,4-d]pyridazin-4-yl]piperidin-4-amine], the half-inhibitory concentration (IC50) under setting [1] lay within 10 to 200 nM.
For `Cn1nccc1-c1nnc(N2CCC(NC(=O)Nc3ccc(C#N)cc3)CC2)c2ccccc12` [Example 32, 1-(4-cyanophenyl)-3-[1-[4-(2-methylpyrazol-3-yl)phthalazin-1-yl]-4-piperidyl]urea], the IC50 under setting [1] is < 10 nM.
For the molecule `CN(Cc1ccccc1[N+](=O)[O-])C1CCN(c2nnc(-c3ccnn3C)c3ccccc23)CC1` [Example 114, N-methyl-1-[4-(2-methylpyrazol-3-yl)phthalazin-1-yl]-N-[(2-nitrophenyl)methyl]piperidin-4-amine], the half-inhibitory concentration (IC50) (read-out: Gli luc IC50) is 10 to 200 nM.
Turning to `Cc1nc(C(F)(F)F)c(CN(C)C2CCN(c3nnc(-c4ccnn4C)c(C)c3C)CC2)s1` [Example 95, 1-[4,5-dimethyl-6-(2-methylpyrazol-3-yl)pyridazin-3-yl]-N-methyl-N-[[2-methyl-4-(trifluoromethyl)thiazol-5-yl]methyl]piperidin-4-amine], the IC50 (read-out: Gli luc IC50) was in the range of 10 to 200 nM.
The same measure, in the same setting: under `Cn1nccc1-c1nnc(N2CCC(NCc3cccc(F)c3F)CC2)c2ccccc12` [Example 163, N-[(2,3-difluorophenyl)methyl]-1-[4-(2-methylpyrazol-3-yl)phthalazin-1-yl]piperidin-4-amine] stands 10 to 200 nM; under `Cn1nccc1-c1nnc(N2CCC(NCc3cccnc3C(F)(F)F)CC2)c2ccccc12` [Example 155, 1-[4-(2-methylpyrazol-3-yl)phthalazin-1-yl]-N-[[2-(trifluoromethyl)-3-pyridyl]methyl]piperidin-4-amine], < 10 nM.
As for `COc1ccc(CNC2CCN(c3nnc(-c4ccnn4C)c4ccccc34)CC2)cc1` [Example 71, N-[(4-methoxyphenyl)methyl]-1-[4-(2-methylpyrazol-3-yl)phthalazin-1-yl]piperidin-4-amine], the half-inhibitory concentration (IC50) under setting [1] is 200 to 2000 nM.
As to `Cc1nc(C(F)(F)F)c(CN(C)C2CCN(c3nnc(-c4ccnn4C)c4ccccc34)CC2)s1` [Example 96, N-methyl-1-[4-(2-methylpyrazol-3-yl)phthalazin-1-yl]-N-[[2-methyl-4-(trifluoromethyl)thiazol-5-yl]methyl]piperidin-4-amine], the IC50 (read-out: Gli luc IC50) was < 10 nM.
With `Cn1nccc1-c1nnc(N2CCC(NC(=O)Nc3ccc(OC(F)F)cc3)CC2)c2ccccc12` [Example 26, 1-[4-(difluoromethoxy)phenyl]-3-[1-[4-(2-methylpyrazol-3-yl)phthalazin-1-yl]-4-piperidyl]urea], the half-maximal inhibitory concentration (IC50) under setting [1] was < 10 nM.
As to `Cn1nccc1-c1nnc(N2CCC(NS(=O)(=O)c3ccc(F)cc3F)CC2)c2c1CCC2` [Example 141, 2,4-difluoro-N-[1-[1-(2-methylpyrazol-3-yl)-6,7-dihydro-5H-cyclopenta[d]pyridazin-4-yl]-4-piperidyl]benzenesulfonamide], the IC50 (read-out: Gli luc IC50) was 10 to 200 nM.
As for `Cn1nccc1-c1nnc(N2CCC(NCc3ccc(C#N)cc3)CC2)c2ccccc12` [Example 68, 4-[[[1-[4-(2-methylpyrazol-3-yl)phthalazin-1-yl]-4-piperidyl]amino]methyl]benzonitrile], the 50% inhibitory concentration (IC50) under setting [1] was in the range of 200 to 2000 nM.
Regarding `Cn1nccc1-c1nnc(N2CCC(NCc3ccc(F)c(C#N)c3)CC2)c2c1CCC2` [Example 128, 2-fluoro-5-[[[1-[1-(2-methylpyrazol-3-yl)-6,7-dihydro-5H-cyclopenta[d]pyridazin-4-yl]-4-piperidyl]amino]methyl]benzonitrile], under “read-out: Gli luc IC50”, the concentration for half-maximal inhibition (IC50) was > 200 nM.
For the molecule `Cc1cc(-c2nnc(N3CCC(NCc4ccc(F)cc4C(F)(F)F)CC3)c(C)c2C)ccn1` [Example 122, 1-[4,5-dimethyl-6-(2-methyl-4-pyridyl)pyridazin-3-yl]-N-[[4-fluoro-2-(trifluoromethyl)phenyl]methyl]piperidin-4-amine], the IC50 (read-out: Gli luc IC50) is > 200 nM.
As to `CN(Cc1ccc(F)cc1F)C1CCN(c2nnc(-c3ccnn3C)c3ccccc23)CC1` [Example 67, N-[(2,4-difluorophenyl)methyl]-N-methyl-1-[4-(2-methylpyrazol-3-yl)phthalazin-1-yl]piperidin-4-amine], the IC50 under setting [1] was 10 to 200 nM.
`CN(Cc1cccc(C#N)c1)C1CCN(c2nnc(-c3ccnn3C)c3c2CCC3)CC1` [Example 131, 3-[[methyl-[1-[1-(2-methylpyrazol-3-yl)-6,7-dihydro-5H-cyclopenta[d]pyridazin-4-yl]-4-piperidyl]amino]methyl]benzonitrile]: under “read-out: Gli luc IC50”, the IC50 lay in the range of 10 to 200 nM.
Take `Cn1nccc1-c1nnc(N2CCC(NCc3ccc(Cl)cc3)CC2)c2ccccc12` [Example 35, N-[(4-chlorophenyl)methyl]-1-[4-(2-methylpyrazol-3-yl)phthalazin-1-yl]piperidin-4-amine]: under setting [1], the IC50 was 10 to 200 nM.
For the molecule `COc1cccc(CN(C)C2CCN(c3nnc(-c4ccnn4C)c4ccccc34)CC2)c1` [Example 62, N-[(3-methoxyphenyl)methyl]-N-methyl-1-[4-(2-methylpyrazol-3-yl)phthalazin-1-yl]piperidin-4-amine], under setting [1], the half-maximal inhibitory concentration (IC50) lay in the range of 10 to 200 nM.
Regarding `Cn1nccc1-c1nnc(N2CCC(NS(=O)(=O)c3ccc(F)cc3C(F)(F)F)CC2)c2c1CCC2` [Example 159, 4-fluoro-N-[1-[1-(2-methylpyrazol-3-yl)-6,7-dihydro-5H-cyclopenta[d]pyridazin-4-yl]-4-piperidyl]-2-(trifluoromethyl)benzenesulfonamide], the half-maximal inhibitory concentration (IC50) (read-out: Gli luc IC50) was < 10 nM.
Consider `COC(=O)c1ccc(CNC2CCN(c3nnc(-c4ccnn4C)c4ccccc34)CC2)nc1` [Example 166, methyl 6-[[[1-[4-(2-methylpyrazol-3-yl)phthalazin-1-yl]-4-piperidyl]amino]methyl]pyridine-3-carboxylate], for which, for the setting “read-out: Gli luc IC50”, the IC50 was > 200 nM.
